From patent publication US20110105472A1, “Diaminopyrimidines as crop protection agents” (Bayer CropScience AG, priority 2008, published 2011)
Like-named read-outs stand apart in the source and are kept apart here.

Experiment: logP by LC-MS, method [b], acidic range pH 2.7
Type: physicochemical

log p (pH 2.7) | Structure (SMILES) | other results
1.59[b] | Brc1cnc(Nc2ccc3[nH]ccc3c2)nc1NC1CCC1 [Compound 1] | –
1.7[b] | Brc1cnc(Nc2ccc3cc[nH]c3c2)nc1NC1CCC1 [Compound 2] | –
– | CCS(=O)(=O)c1nc2ccc(Nc3ncc(Br)c(NC4CCC4)n3)cc2s1 [Compound 3] | log p (method [b], LC-MS, acidic range pH 2.7): 2.91[b]
1.49[b] | O=C1CCc2cc(Nc3ncc(Br)c(NC4CCC4)n3)ccc2N1 [Compound 4] | –
1.61[b] | O=C1COc2ccc(Nc3ncc(Br)c(NC4CCC4)n3)cc2N1 [Compound 6] | –
2.11[b] | Cc1nc2cc(Nc3ncc(Br)c(NC4CCC4)n3)ccc2s1 [Compound 10] | –
1.78[b] | CC(=O)N1CCc2ccc(Nc3ncc(Br)c(NC4CCC4)n3)cc21 [Compound 12] | –
1.83[b] | CN1C(=O)COc2ccc(Nc3ncc(Br)c(NC4CCC4)n3)cc21 [Compound 13] | –
1.75[b] | O=C1CCCc2ccc(Nc3ncc(Br)c(NC4CCC4)n3)cc2N1 [Compound 15] | –
1.61[b] | O=c1[nH]c2cc(Nc3ncc(Br)c(NC4CCC4)n3)ccc2o1 [Compound 16] | –
1.68[b] | CC(=O)N1CCc2cc(Nc3ncc(Br)c(NC4CCC4)n3)ccc21 [Compound 17] | –
4.56[b] | FC1(F)Oc2ccc(Nc3ncc(Br)c(NC4CCC4)n3)cc2OC1(F)F [Compound 18] | –
1.87[b] | Brc1cnc(Nc2ccc3c(c2)OCO3)nc1NC1CCC1 [Compound 19] | –
2.41[b] | COc1cc(Nc2ncc(Br)c(NC3CCC3)n2)ccc1F [Compound 31] | –
2.28[b] | CC(=O)c1cccc(Nc2ncc(Br)c(NC3CCC3)n2)c1 [Compound 32] | –
2.8[b] | Brc1cnc(Nc2cccc(-c3nccs3)c2)nc1NC1CCC1 [Compound 33] | –
2.17[b] | CCOc1ccc(Nc2ncc(Br)c(NC3CCC3)n2)cc1 [Compound 35] | –
2.2[b] | COCc1cccc(Nc2ncc(Br)c(NC3CCC3)n2)c1 [Compound 39] | –
3.13[b] | CC(C)c1ccc(Nc2ncc(Br)c(NC3CCC3)n2)cc1 [Compound 40] | –
2.11[b] | COCC(C)Oc1ccc(Nc2ncc(Br)c(NC3CCC3)n2)cc1 (stereo not drawn) [Compound 41] | –
2.05[b] | COCc1cccc(Nc2ncc(Cl)c(NC3CCC3)n2)c1 [Compound 42] | –

log p (pH 2.7) | Structure (SMILES) | other results
1.62[b] | COC(=O)Nc1ccc(Nc2ncc(Br)c(NC3CCC3)n2)cc1 [Compound 46] | –
2.33[b] | Fc1ccc(Nc2ncc(Br)c(NC3CCC3)n2)cc1 [Compound 49] | –
2.12[b] | COc1cc(Nc2ncc(Br)c(NC3CCC3)n2)cc(OC)c1 [Compound 53] | –
1.87[b] | Cc1ccccc1Nc1ncc(Br)c(NC2CCC2)n1 [Compound 60] | –
2.6[b] | Fc1ccc(Nc2ncc(Br)c(NC3CCC3)n2)cc1 [Compound 62] | –
3.9[b] | Fc1cc(C(F)(F)F)ccc1Nc1ncc(Br)c(NC2CCC2)n1 [Compound 63] | –
2.67[b] | N#Cc1cccc(Nc2ncc(Br)c(NC3CCC3)n2)c1 [Compound 64] | –
1.71[b] | COc1ccc(Nc2ncc(Br)c(NC3CCC3)n2)cc1OC [Compound 65] | –
3.07[b] | Cc1ccc(NS(=O)(=O)c2cc(Nc3ncc(Br)c(NC4CCC4)n3)ccc2C)cc1 [Compound 66] | –
2.23[b] | COc1ccccc1Nc1ncc(Br)c(NC2CCC2)n1 [Compound 68] | –
2.95[b] | N#Cc1ccc(Nc2ncc(Br)c(NC3CCC3)n2)cc1 [Compound 70] | –
4.51[b] | FC(F)(F)Sc1ccc(Nc2ncc(Br)c(NC3CCC3)n2)cc1 [Compound 71] | –
2.09[b] | O=C(Nc1ccccc1)c1ccc(Nc2ncc(Br)c(NC3CCC3)n2)cc1 [Compound 72] | –
3.5[b] | CSc1ccc(Nc2ncc(Br)c(NC3CCC3)n2)cc1Cl [Compound 73] | –
2.26[b] | Brc1cnc(Nc2ccc(-c3cscn3)cc2)nc1NC1CCC1 [Compound 74] | –
2.5[b] | FC(F)Oc1ccc(Nc2ncc(Br)c(NC3CCC3)n2)cc1 [Compound 75] | –
4.98[b] | Clc1cc(Cl)cc(Nc2ncc(Br)c(NC3CCC3)n2)c1 [Compound 76] | –
2.77[b] | CCOC(=O)c1cccc(Nc2ncc(Br)c(NC3CCC3)n2)c1 [Compound 77] | –
3.59[b] | COC(=O)c1ccc(Nc2ncc(Br)c(NC3CCC3)n2)cc1Cl [Compound 78] | –
2.02[b] | NS(=O)(=O)c1cc(Nc2ncc(Br)c(NC3CCC3)n2)ccc1Cl [Compound 79] | –
1.55[b] | Oc1ccc(Nc2ncc(Br)c(NC3CCC3)n2)c(F)c1 [Compound 80] | –

log p (pH 2.7) | Structure (SMILES) | other results
4.72[b] | FC(F)(F)Oc1ccc(Nc2ncc(Br)c(NC3CCC3)n2)cc1Cl [Compound 81] | –
1.71[b] | C=CC(=O)Nc1cccc(Nc2ncc(Br)c(NC3CCC3)n2)c1 [Compound 82] | –
1.99[b] | C=CCNC(=O)c1ccc(Nc2ncc(Br)c(NC3CCC3)n2)cc1 [Compound 83] | –
1.75[b] | COc1cc(Nc2ncc(Br)c(NC3CCC3)n2)ccc1NS(C)(=O)=O [Compound 84] | –
1.61[b] | CS(=O)(=O)Nc1ccc(Nc2ncc(Br)c(NC3CCC3)n2)cc1 [Compound 85] | –
1.71[b] | CNS(=O)(=O)Cc1ccc(Nc2ncc(Br)c(NC3CCC3)n2)cc1 [Compound 86] | –
2.7[b] | CN(C)S(=O)(=O)Oc1cccc(Nc2ncc(Br)c(NC3CCC3)n2)c1 [Compound 89] | –
1.59[b] | COc1cc(Nc2ncc(Br)c(NC3CCC3)n2)ccc1NC(C)=O [Compound 90] | –
2.73[b] | CN(C)S(=O)(=O)c1ccc(Nc2ncc(Br)c(NC3CCC3)n2)cc1 [Compound 91] | –
2.02[b] | CC(C)(C)C(=O)Nc1ccc(Nc2ncc(Br)c(NC3CCC3)n2)cc1 [Compound 92] | –
1.92[b] | CCN(C(C)=O)c1ccc(Nc2ncc(Br)c(NC3CCC3)n2)cc1 [Compound 93] | –
1.73[b] | CC(=O)N(C)c1ccc(Nc2ncc(Br)c(NC3CCC3)n2)cc1 [Compound 94] | –
2.21[b] | O=C(Nc1ccc(Nc2ncc(Br)c(NC3CCC3)n2)cc1)C(F)(F)F [Compound 95] | –
1.71[b] | CCC(=O)Nc1cccc(Nc2ncc(Br)c(NC3CCC3)n2)c1 [Compound 97] | –
1.9[b] | C=C(C)C(=O)Nc1cccc(Nc2ncc(Br)c(NC3CCC3)n2)c1 [Compound 98] | –
2.11[b] | CC(C)(C)C(=O)Nc1cccc(Nc2ncc(Br)c(NC3CCC3)n2)c1 [Compound 99] | –
1.54[b] | CNC(=O)c1ccc(Nc2ncc(Br)c(NC3CCC3)n2)cc1 [Compound 101] | –
2.46[b] | CC(C)(C)NC(=O)c1ccc(Nc2ncc(Br)c(NC3CCC3)n2)cc1 [Compound 102] | –
2.63[b] | CC(C)(C)C(=O)Cc1ccc(Nc2ncc(Br)c(NC3CCC3)n2)cc1 [Compound 104] | –
2.04[b] | CCOC(=O)Nc1cccc(Nc2ncc(Br)c(NC3CCC3)n2)c1 [Compound 105] | –
1.83[b] | COC(=O)Nc1cccc(Nc2ncc(Br)c(NC3CCC3)n2)c1 [Compound 106] | –

log p (pH 2.7) | Structure (SMILES) | other results
1.55[b] | COc1cc(Nc2ncc(Cl)c(NC3CCC3)n2)ccc1NC(C)=O [Compound 108] | –
1.75[b] | COc1ccc(Nc2ncc(Cl)c(NC3CCC3)n2)cc1 [Compound 110] | –
2.77[b] | N#Cc1ccc(Nc2ncc(Cl)c(NC3CCC3)n2)cc1 [Compound 111] | –
1.94[b] | CC(C)(C)C(=O)Nc1ccc(Nc2ncc(Cl)c(NC3CCC3)n2)cc1 [Compound 116] | –
1.43[b] | CC(=O)Nc1ccc(Nc2ncc(Cl)c(NC3CCC3)n2)cc1 [Compound 117] | –
1.83[b] | CCN(C(C)=O)c1ccc(Nc2ncc(Cl)c(NC3CCC3)n2)cc1 [Compound 119] | –
2.04[b] | CC(C)(C)C(=O)Nc1cccc(Nc2ncc(Cl)c(NC3CCC3)n2)c1 [Compound 125] | –
1.5[b] | CNC(=O)c1ccc(Nc2ncc(Cl)c(NC3CCC3)n2)cc1 [Compound 126] | –
1.61[b] | COC(=O)Nc1ccc(Nc2ncc(Cl)c(NC3CCC3)n2)cc1 [Compound 135] | –
1.94[b] | CCOC(=O)Nc1cccc(Nc2ncc(Cl)c(NC3CCC3)n2)c1 [Compound 137] | –
– | COC(=O)Nc1cccc(Nc2ncc(Cl)c(NC3CCC3)n2)c1 [Compound 139] | log p: 1.73
1.92[b] | CC1(C(=O)Nc2cccc(Nc3ncc(Cl)c(NC4CCC4)n3)c2)CC1 [Compound 140] | –
1.97[b] | CC(C)(CF)C(=O)Nc1cccc(Nc2ncc(Cl)c(NC3CCC3)n2)c1 [Compound 141] | –
2.19[b] | CC(C)(C)NC(=O)Cc1cccc(Nc2ncc(Br)c(NC3CCC3)n2)c1 [Compound 143] | –
2.46[b] | O=S(=O)(c1cccc(Nc2ncc(Br)c(NC3CCC3)n2)c1)N1CCOCC1 [Compound 147] | –
1.68[b] | CN(C=O)c1ccc(Nc2ncc(Br)c(NC3CCC3)n2)cc1 [Compound 153] | –
2.46[b] | CN(C)S(=O)(=O)Oc1ccc(Nc2ncc(Br)c(NC3CCC3)n2)cc1 [Compound 160] | –
2.36[b] | CC(C)(C)OC(=O)Nc1ccc(Nc2ncc(Br)c(NC3CCC3)n2)cc1 [Compound 162] | –

Structure (SMILES) | log p (pH 2.7) | other results
CCc1nc2cc(Nc3ncc(Br)c(NC4CCC4)n3)ccc2o1 [Compound 21] | 2.06[b] | –
Cc1cc(C)c(C)c(Nc2ncc(Br)c(NC3CCC3)n2)c1 [Compound 61] | 2.57[b] | –
COc1cccc(Nc2ncc(Cl)c(NC3CCC3)n2)c1 [Compound 109] | 2.06[b] | –
CNC(=O)Oc1cccc(Nc2ncc(Cl)c(NC3CCC3)n2)c1 [Compound 138] | 1.64[b] | –
CC(C)Sc1cccc(Nc2ncc(Cl)c(NC3CCC3)n2)c1 [Compound 146] | 3.62[b] | –
CC(=O)c1cc(Nc2ncc(Br)c(NC3CCC3)n2)ccc1Cl [Compound 150] | 2.95[b] | –
O=CNc1ccc(Nc2ncc(Br)c(NC3CCC3)n2)cc1 [Compound 152] | 1.47[b] | –
O=CNc1cccc(Nc2ncc(Br)c(NC3CCC3)n2)c1 [Compound 154] | 1.58[b] | –
CN(C)S(=O)(=O)c1cccc(Nc2ncc(Br)c(NC3CCC3)n2)c1 [Compound 157] | 2.53[b] | –
